What was measured:
Assay type in all cases: functional
[1] = system: Klebsiella pneumoniae; assay: Antibacterial activity against Klebsiella pneumoniae isolate Kp2730 harboring IncL/M plasmid and blaIMP-4-qacG2-aacA4-catB3 and dfrA12-orfF-aadA2 arrays by Etest method in presence of clavulanic acid
[2] = system: Morganella morganii; assay: Antibacterial activity against Morganella morganii isolate Mm1229 harboring IncL/M plasmid and blaIMP-4-qacG2-aacA4-catB3 array by Etest method in presence of clavulanic acid
[3] = system: Klebsiella oxytoca; assay: Antibacterial activity against Klebsiella oxytoca isolate Ko0426 harboring IncL/M plasmid and blaIMP-4-qacG2-aacA4-catB3 array by Etest method in presence of clavulanic acid
[4] = system: Citrobacter amalonaticus; assay: Antibacterial activity against Citrobacter amalonaticus isolate Ca1614 harboring IncL/M plasmid and blaIMP-4-qacG2-aacA4-catB3 array by Etest method in presence of clavulanic acid
[5] = system: Serratia marcescens; assay: Antibacterial activity against Serratia marcescens isolate Sm203 harboring IncA/C plasmid and blaIMP-4-qacG2-aacA4-catB3 array by Etest method in presence of clavulanic acid
[6] = system: Enterobacter cloacae; assay: Antibacterial activity against Enterobacter cloacae isolate El216 harboring IncA/C plasmid and blaIMP-4-qacG2-aacA4-catB3 array by Etest method in presence of clavulanic acid
[7] = system: Escherichia coli; assay: Antibacterial activity against Escherichia coli isolate Ec221 harboring IncA/C plasmid and blaIMP-4-qacG2-aacA4-catB3 array by Etest method in presence of clavulanic acid
[8] = system: Citrobacter amalonaticus; assay: Antibacterial activity against Citrobacter amalonaticus Ca3927 transconjugant harboring IncL/M plasmid and blaIMP-4-qacG2-aacA4-catB3 array by Etest method in presence of clavulanic acid
[9] = system: Serratia marcescens; assay: Antibacterial activity against Serratia marcescens Sm2723 transconjugant harboring IncL/M plasmid and blaIMP-4-qacG2-aacA4-catB3 array by Etest method in presence of clavulanic acid
[10] = system: Citrobacter amalonaticus; assay: Antibacterial activity against Citrobacter amalonaticus Ca38009 transconjugant harboring IncL/M plasmid and blaIMP-4-qacG2-aacA4-catB3 array by Etest method in presence of clavulanic acid
[11] = system: Morganella morganii; assay: Antibacterial activity against Morganella morganii Mm38009 transconjugant harboring IncL/M plasmid and blaIMP-4-qacG2-aacA4-catB3 array by Etest method in presence of clavulanic acid
[12] = system: Escherichia coli; assay: Antibacterial activity against Escherichia coli Ec9381 transconjugant harboring IncL/M plasmid and blaIMP-4-qacG2-aacA4-catB3 array by Etest method in presence of clavulanic acid
[13] = system: Klebsiella pneumoniae; assay: Antibacterial activity against Klebsiella pneumoniae Kp204 transconjugant harboring IncA/C plasmid and blaIMP-4-qacG2-aacA4-catB3 array by Etest method in presence of clavulanic acid

Measured: MIC

CC1(C)S[C@@H]2[C@H](NC(=O)[C@H](N)c3ccc(O)cc3)C(=O)N2[C@H]1C(=O)O [AMOXICILLIN]
> 16 µg/mL: [1] | [2] | [3] | [4] | [5] | [6] | [7] | [8] | [9] | [10] | [11] | [12] | [13]
